Test results: patent publication US20240254115A1 (ACONDICIONAMIENTO TARRASENSE, priority 2021, published 2024)
pKi: −log10 of the molar value.

Tests used:
[1] = biological target: T1, human σ2/TMEM97 receptor (Homo sapiens, UniProt Q5BJF2); assay: Binding assay to human σ2/TMEM97 receptor; settings: transfected HEK-293 membranes, 10 nM [3H]-DTG, 25° C. 120 minutes; + may also stand for 1-50% inhibition at 1 or 10 μM; read-out: Binding σ-2 Ki
T1 construct: expressed in transfected cells; host or cells: HEK-293
How it was run: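 Membranes from transfected HEK-293 cells (15 µg) were incubated with 10 nM [3H]-DTG in 50 mM Tris-HCl pH 8.0 for 120 min at 25 °C, with 10 µM haloperidol defining non-specific binding. Filtration and scintillation counting followed. Compounds tested as % inhibition at 1 or 10 µM, or at five concentrations for Ki.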

[2] = biological target: T2, human σ1 receptor (Homo sapiens, UniProt Q99720); assay: Human σ1 receptor radioligand assay; settings: transfected HEK-293 membranes, 5 nM [3H](+)-pentazocine, 37° C. 120 minutes; + may also stand for 1-50% inhibition at 1 or 10 μM; read-out: Binding σ-1 Ki
T2 construct: expressed in transfected cells; host or cells: HEK-293
How it was run: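 Membranes (7 μg) were incubated with 5 nM [3H](+)-pentazocine in 50 mM Tris-HCl pH 8 for 120 min at 37° C. Non-specific binding was defined with 10 μM haloperidol. Values are % inhibition at 1 or 10 μM or Ki from five concentrations, read by filtration and scintillation counting.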

T2 sequence (Q99720 whole entry): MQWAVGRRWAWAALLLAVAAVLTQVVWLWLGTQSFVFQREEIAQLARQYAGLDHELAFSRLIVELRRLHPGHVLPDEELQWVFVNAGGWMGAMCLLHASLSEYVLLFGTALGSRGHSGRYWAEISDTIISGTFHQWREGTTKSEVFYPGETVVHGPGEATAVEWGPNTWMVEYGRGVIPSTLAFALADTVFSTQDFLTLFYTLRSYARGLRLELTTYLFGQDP
T1 sequence (Q5BJF2 whole entry): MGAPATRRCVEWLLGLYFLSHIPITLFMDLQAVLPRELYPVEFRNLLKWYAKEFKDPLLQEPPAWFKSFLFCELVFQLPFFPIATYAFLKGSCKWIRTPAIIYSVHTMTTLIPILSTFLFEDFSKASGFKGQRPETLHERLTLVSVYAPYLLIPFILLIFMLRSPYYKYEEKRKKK

SMILES | pKi [1] | pKi [2]
CC(C)(C)CCN1CCC2(CCCN(S(=O)(=O)c3ccc(N4CCCCC4=O)nc3)C2)CC1 [Example 122, 1-(5-((9-(3,3-Dimethylbutyl)-2,9-diazaspiro[5.5]undecan-2-yl)sulfonyl)pyridin-2-yl)piperidin-2-one] | > 7.00 | 6.30 to 7.00
CC(C)(C)CCN1CCC2(CCCN(S(=O)(=O)c3ccc(N4CCOC4=O)nc3)C2)CC1 [Example 123, 3-(5-((9-(3,3-Dimethylbutyl)-2,9-diazaspiro[5.5]undecan-2-yl)sulfonyl)pyridin-2-yl)oxazolidin-2-one] | > 7.00 | 6.30 to 7.00
CN(CC(C)(C)C)C1CCN(S(=O)(=O)c2ccc(N3CCOC3=O)nc2)CC1 [Example 124, 3-(5-((4-(Methyl(neopentyl)amino)pi-peridin-1-yl)sulfonyl)pyridin-2-yl)oxazolidin-2-one] | < 6.00 | 6.30 to 7.00
N#Cc1ccc(CN2CCC3(CCCN(S(=O)(=O)c4ccc(N5CCOC5=O)nc4)C3)CC2)c(F)c1 [Example 125, 3-Fluoro-4-((2-((6-(2-oxooxazolidin-3-yl)pyridin-3-yl)sulfonyl)-2,9-diazaspiro[5.5]undecan-9-yl)methyl)benzonitrile] | > 7.00 | > 7.00
O=C1CCCN1c1ccc(S(=O)(=O)N2CCCC3(CCN(CC4CCOCC4)CC3)C2)cn1 [Example 126, 1-(5-((9-((Tetrahydro-2H-pyran-4-yl)methyl)-2,9-diazaspiro[5.5]undecan-2-yl)sulfonyl)pyridin-2-yl)pyrrolidin-2-one] | > 7.00 | > 7.00
O=C1OCCN1c1ccc(S(=O)(=O)N2CCCC3(CCN(CC4CCOCC4)CC3)C2)nc1 [Example 127, 3-(6-((9-((Tetrahydro-2H-pyran-4-yl)methyl)-2,9-diazaspiro[5.5]undecan-2-yl)sulfonyl)pyridin-3-yl)oxazolidin-2-one] | > 7.00 | > 7.00
O=C1OCCN1c1ccc(S(=O)(=O)N2CCC3(CCN(CC4CCOCC4)CC3)CC2)cn1 [Example 128, 3-(5-((9-((Tetrahydro-2H-pyran-4-yl)methyl)-3,9-diazaspiro[5.5]undecan-3-yl)sulfonyl)pyridin-2-yl)oxazolidin-2-one] | > 7.00 | 6.00 to 6.30
CN(CC1CCOCC1)C1CCN(S(=O)(=O)c2ccc(N3CCOC3=O)nc2)CC1 [Example 129, 3-(5-((4-(Methyl((tetrahydro-2H-pyran-4-yl)methyl)amino)piperidin-1-yl)sulfonyl)pyridin-2-yl)oxazolidin-2-one] | 6.30 to 7.00 | 6.30 to 7.00
O=S(=O)(c1ccc(N2CCC(F)(F)CC2)nc1)N1CCCC2(CCN(Cc3ccccc3)CC2)C1 [Example 130, 9-Benzyl-2-((6-(4,4-difluoropiperidin-1-yl)pyridin-3-yl)sulfonyl)-2,9-diazaspiro[5.5]undecane] | > 7.00 | > 7.00
CC(C)(C)CCN1CCC2(CC1)CCN(S(=O)(=O)c1ccc(N3CCOCC3=O)nc1)CC2 [Example 131, 4-(5-((9-(3,3-Dimethylbutyl)-3,9-diazaspiro[5.5]undecan-3-yl)sulfonyl)pyridin-2-yl)morpholin-3-one] | > 7.00 | 6.30 to 7.00
CC(C)(C)CCN1CCC2(CC1)CCN(S(=O)(=O)c1ccc(N3CCCCC3=O)nc1)CC2 [Example 132, 1-(5-((9-(3,3-Dimethylbutyl)-3,9-diazaspiro[5.5]undecan-3-yl)sulfonyl)pyridin-2-yl)piperidin-2-one] | > 7.00 | 6.30 to 7.00
CC(C)(C)CCN1CCC2(CC1)CCN(S(=O)(=O)c1ccc(N3CCCC3=O)nc1)CC2 [Example 133, 1-(5-((9-(3,3-Dimethylbutyl)-3,9-diazaspiro[5.5]undecan-3-yl)sulfonyl)pyridin-2-yl)pyrrolidin-2-one] | > 7.00 | 6.30 to 7.00
CC(C)(C)CCN1CCC2(CC1)CCN(S(=O)(=O)c1ccc(N3CCOC3=O)nc1)CC2 [Example 134, 3-(5-((9-(3,3-Dimethylbutyl)-3,9-diazaspiro[5.5]undecan-3-yl)sulfonyl)pyridin-2-yl)oxazolidin-2-one] | > 7.00 | 6.30 to 7.00
O=C1OCCN1c1ccc(S(=O)(=O)N2CCC3(CCN(Cc4ccccc4)CC3)CC2)cn1 [Example 135, 3-(5-((9-Benzyl-3,9-diazaspiro[5.5]undecan-3-yl)sulfonyl)pyridin-2-yl)oxazolidin-2-one] | > 7.00 | > 7.00
CC(C)(C)CCN1CCCC2(CCN(S(=O)(=O)c3ccc(N4CCCC4=O)nc3)CC2)C1 [Example 136, 1-(5-((2-(3,3-Dimethylbutyl)-2,9-diazaspiro[5.5]undecan-9-yl)sulfonyl)pyridin-2-yl)pyrrolidin-2-one] | > 7.00 | > 7.00
CC(C)(C)CCN1CCCC2(CCN(S(=O)(=O)c3ccc(N4CCOC4=O)nc3)CC2)C1 [Example 137, 3-(5-((2-(3,3-Dimethylbutyl)-2,9-diazaspiro[5.5]undecan-9-yl)sulfonyl)pyridin-2-yl)oxazolidin-2-one] | > 7.00 | > 7.00
CC(C)(C)CCN1CCC2(CC1)CCN(S(=O)(=O)c1ccc(N3CCOC3=O)nc1)C2 [Example 138, 3-(5-((8-(3,3-Dimethylbutyl)-2,8-diazaspiro[4.5]decan-2-yl)sulfonyl)pyridin-2-yl)oxazolidin-2-one] | > 7.00 | > 7.00
CC(C)(C)CCN1CCC2(CC1)CCN(S(=O)(=O)c1ccc(N3CCCC3=O)nc1)C2 [Example 139, 1-(5-((8-(3,3-Dimethylbutyl)-2,8-diazaspiro[4.5]decan-2-yl)sulfonyl)pyridin-2-yl)pyrrolidin-2-one] | > 7.00 | > 7.00
CC(C)(C)CCN1CCC2(CC1)CCN(S(=O)(=O)c1cnc(N3CCOC3=O)c(F)c1)CC2 [Example 140, 3-(5-((9-(3,3-Dimethylbutyl)-3,9-diazaspiro[5.5]undecan-3-yl)sulfonyl)-3-fluoropyridin-2-yl)oxazolidin-2-one] | > 7.00 | 6.30 to 7.00
CC(C)(C)CCN1CCC2(CC1)CCN(S(=O)(=O)c1cnc(N3CCCC3=O)c(F)c1)CC2 [Example 141, 1-(5-((9-(3,3-Dimethylbutyl)-3,9-diazaspiro[5.5]undecan-3-yl)sulfonyl)-3-fluoropyridin-2-yl)pyrrolidin-2-one] | > 7.00 | 6.30 to 7.00
CN(Cc1ccccc1)C1CCN(S(=O)(=O)c2ccc(N3CCOC3=O)nc2)CC1 [Example 142, 3-(5-((4-(Benzyl(methyl)ami-no)piperidin-1-yl)sulfonyl)pyridin-2-yl)oxazolidin-2-one] | > 7.00 | 6.30 to 7.00
CC(C)(C)CN1CCC2(CC1)CCN(S(=O)(=O)c1ccc(N3CCOC3=O)nc1)CC2 [Example 143, 3-(5-((9-Neopentyl-3,9-diazaspiro[5.5]undecan-3-yl)sulfonyl)pyridin-2-yl)oxazolidin-2-one] | > 7.00 | < 6.00
O=C1OCCN1c1ccc(S(=O)(=O)N2CCC3(CCN(Cc4ccccc4)CC3)C2)cn1 [Example 144, 3-(5-((8-Benzyl-2,8-diazaspiro[4.5]decan-2-yl)sulfonyl)pyridin-2-yl)oxazolidin-2-one] | 6.30 to 7.00 | 6.30 to 7.00
O=C1OCCN1c1ccc(S(=O)(=O)N2CCC3(CCCN(Cc4ccccc4F)C3)CC2)cn1 [Example 145, 3-(5-((2-(2-Fluorobenzyl)-2,9-diazaspiro[5.5]undecan-9-yl)sulfonyl)pyridin-2-yl)oxazolidin-2-one] | 6.30 to 7.00 | 6.00 to 6.30
O=C1OCCN1c1ccc(S(=O)(=O)N2CCC3(CCCN(Cc4cc(F)ccc4F)C3)CC2)cn1 [Example 146, 3-(5-((2-(2,5-Difluorobenzyl)-2,9-diazaspiro[5.5]undecan-9-yl)sulfonyl)pyridin-2-yl)oxazolidin-2-one] | 6.00 to 6.30 | 6.00 to 6.30
O=C1OCCN1c1ccc(S(=O)(=O)N2CCC3(CCCN(Cc4ccccc4)C3)CC2)cn1 [Example 147, 3-(5-((2-Benzyl-2,9-diazaspiro[5.5]undecan-9-yl)sulfonyl)pyridin-2-yl)oxazolidin-2-one] | 6.30 to 7.00 | 6.00 to 6.30
CN(Cc1ccccc1)C1CCN(S(=O)(=O)c2ccc(N3CCCC3=O)nc2)CC1 [Example 148, 1-(5-((4-(Benzyl(methyl)ami-no)piperidin-1-yl)sulfonyl)pyridin-2-yl)pyrrolidin-2-one] | > 7.00 | 6.30 to 7.00
O=C1OCCN1c1ccc(S(=O)(=O)N2CCC3(CCCN(CC4CCOCC4)C3)CC2)cn1 [Example 149, 3-(5-((2-((Tetrahydro-2H-pyran-4-yl)methyl)-2,9-diazaspiro[5.5]undecan-9-yl)sulfonyl)pyridin-2-yl)oxazolidin-2-one] | 6.30 to 7.00 | > 7.00
CC(C)(C)CN1CCCC2(CCN(S(=O)(=O)c3ccc(N4CCOC4=O)nc3)CC2)C1 [Example 150, 3-(5-((2-Neopentyl-2,9-diazaspiro[5.5]undecan-9-yl)sulfonyl)pyridin-2-yl)oxazolidin-2-one] | < 6.00 | 6.00 to 6.30
N#Cc1ccc(CN2CCCC3(CCN(S(=O)(=O)c4ccc(N5CCOC5=O)nc4)CC3)C2)cc1F [Example 151, 2-Fluoro-4-((9-((6-(2-oxooxazolidin-3-yl)pyridin-3-yl)sulfonyl)-2,9-diazaspiro[5.5]undecan-2-yl)methyl)benzonitrile] | > 7.00 | 6.30 to 7.00
